A short description of this data set: Human HepG2 cell viability assay in 384 well format. It counts as toxicity, cell-based. Details: dose 125 nL, time 70.5 hour; cytotoxicity at 70.5 h: concentration not given beside the values. The note with it: HepG2 cells, read-out: Inhibition.

Molecules are shown by their SMILES.

Consider `O=C(c1cccc(F)c1)N(CCCO)S(=O)(=O)c1cccs1`, for which the cytotoxicity at 70.5 h is -8.04%. In the case of `CCN(C)S(=O)(=O)N1CCCC(c2nc(-c3ccccc3)c[nH]2)C1` (stereo not given), the cytotoxicity at 70.5 h worked out at 14.3%. With `COC(=O)CCN(C)C(=O)c1ccc(-c2cscn2)cc1`, the cytotoxicity at 70.5 h was 4.45%. As to `O=C(CCCc1nc2ccccc2[nH]1)N1CCCC1c1ccncc1` (stereo not given), the cytotoxicity at 70.5 h is 32.6%. For the molecule `O=c1cc(CN(Cc2ccco2)C2CC2)nc2ccc(Br)cn12`, the cytotoxicity at 70.5 h was -3.54%.

`CCn1cnnc1CNC(=O)NC(c1ccccc1)C1CCCC1` (stereo not given): the cytotoxicity at 70.5 h is -7.51%. Next, `O=c1cc(CN(CCO)C2CC2)nc2ccc(Cl)cn12`: 14.2%; `Cc1noc(C2CCN(C(=O)c3cc(Cl)c(Cl)n3C)CC2)n1`: -2.97%; `CCOCCC(=O)NCCNc1nccc(C(F)(F)F)n1`: 2.23%.

With `CS(=O)(=O)N1CCCC(c2nc(-c3ccccc3)c[nH]2)C1` (stereo not given), the cytotoxicity at 70.5 h is -7.34%. For the molecule `CCOc1cncc(NCCc2nnc3ccccn23)n1`, the cytotoxicity at 70.5 h is -4.67%.

For the molecule `O=C(Cc1ccon1)Nc1cncc(Br)c1O`, the cytotoxicity at 70.5 h is -0.318%.

`CN(C)C(=O)c1ccc(-c2cscn2)cc1`: the cytotoxicity at 70.5 h worked out at 1.52%. Take `O=C(Cc1ccn[nH]1)Nc1cncc(Br)c1O`: the cytotoxicity at 70.5 h is -2.7%.

`O=S(=O)(c1ccccc1Cl)N1CCCC(c2ncc[nH]2)C1` (stereo not given): the cytotoxicity at 70.5 h is -3.85%. Consider `O=C(Nc1cncc(Br)c1O)c1ccon1`, for which the cytotoxicity at 70.5 h is -2.33%. Regarding `CCc1nnc(CNc2ccc(CC(=O)N3CCSCC3)cc2)o1`, the cytotoxicity at 70.5 h came to 13.8%. Next, `Cc1noc(C2CCCN(C(=O)c3cc(Cl)cn3C)C2)n1` (stereo not given): -4.77%; `COc1ccccc1OCc1nc(C(C)C)no1`: 12.8%. In the case of `CCc1noc(CNc2cccc(C(=O)N3CCSCC3)c2)n1`, the cytotoxicity at 70.5 h turned out to be 0.659%. The same measure for `CC(NCCCn1ccnc1)c1ccc(N2CCCS2(=O)=O)cc1` (stereo not given): 31%; for `CC(NC(=O)CN1CCN(Cc2ccc(Br)s2)CC1)c1ccccc1` (stereo not given): 25.3%; for `Cc1noc(C(C)C)c1C(=O)NCC1CCN(c2ccccc2)C1` (stereo not given): 6.36%. With `Cc1noc(C)c1C(=O)NCC1CCCCN1Cc1ccccc1` (stereo not given), the cytotoxicity at 70.5 h was -1.55%. Next, `CN(Cc1nnc2ccccn12)C(=O)NC1CCCCC1`: -4.44%. The same measure for `CN(Cc1nnc2ccccn12)C(=O)CC1CCCCC1`: -8.16%; for `CC(C)(C)CC(NC(=O)c1nc(=O)[nH][nH]1)c1ccc(F)cc1` (stereo not given): -3.76%; for `O=C(CCS(=O)(=O)C1CCCC1)N1CCC(O)(C(F)(F)F)C1` (stereo not given): 19.5%.

As for `Cc1ccc(C(=O)Nc2cc(C(N)=O)ccc2CN(C)C)cc1Cl`, the cytotoxicity at 70.5 h was -7.51%. The same measure for `Cc1noc(C(C)C)c1C(=O)NCC1CCCN1Cc1ccccc1` (stereo not given): 9.45%; for `Cc1nc(C(C)NC(=O)NCc2nccn2CC(C)C)cs1` (stereo not given): 4.05%. As for `CC(C)Cn1ccnc1CNC(=O)NC(C)c1nccs1` (stereo not given), the cytotoxicity at 70.5 h was 1.43%.

In the case of `O=C(Nc1cccnc1)Nc1ccn(CC(F)F)n1`, the cytotoxicity at 70.5 h was 7.38%. On to `CCOc1ccc(NC(=O)c2scnc2CC)cc1CO`, for which the cytotoxicity at 70.5 h came to 1.88%.

Take `COCC(O)CN1CCC(NC(=O)c2ccccc2Cl)CC1` (stereo not given): the cytotoxicity at 70.5 h was -0.503%. Take `N#CCCN(C(=O)COC1CCCC1)C1CC1`: the cytotoxicity at 70.5 h is -0.353%. The same measure for `CCN(C(=O)Cc1ccc(NCc2nccn2C)cc1)c1ccccc1`: -6.33%; for `Cc1nc2n(n1)CC(NCCCc1nc(-c3cccs3)no1)CC2` (stereo not given): 4.3%; for `OCCN1CCCCC1C1OCCO1` (stereo not given): 0.562%. The same measure for `CNC(=O)CN1CCC(CN(C)CCSc2ccccc2)CC1`: -0.471%; for `C1CCN(CCN2CCCCC2C2OCCO2)CC1` (stereo not given): 3.91%. Next, `Cc1nc(C(C)C)sc1C(=O)N1CCC(C(N)=O)CC1`: 6%. Regarding `Cc1noc(CN2CCN(c3cncc(Cl)n3)CC2)n1`, the cytotoxicity at 70.5 h is -4.58%. With `CN(C)c1cc(C(F)(F)F)nc(N2CCCC2c2ccccn2)n1` (stereo not given), the cytotoxicity at 70.5 h is -5.01%. With `Clc1cncc(N2CCN(Cc3ccon3)CC2)n1`, the cytotoxicity at 70.5 h was -3.48%. For the molecule `Cc1nc(CN2CCN(c3cncc(Cl)n3)CC2)no1`, the cytotoxicity at 70.5 h is -9.09%.

With `Cc1cccc(S(=O)(=O)NC(=O)CN(C)Cc2ccccc2)c1`, the cytotoxicity at 70.5 h worked out at 1.15%. With `Cc1n[nH]c(C)c1CNC(=O)NC1CCCN(c2ccccc2F)C1` (stereo not given), the cytotoxicity at 70.5 h was 6.33%. For `Cc1[nH]ncc1C(=O)NCC1CCC2(CC1)OCCO2`, the cytotoxicity at 70.5 h is -5.66%.

On to `O=C(CCNC1(c2nccs2)CCCC1)N1CCOCC1`, for which the cytotoxicity at 70.5 h was determined as 7.56%. For `CC(NCCNS(=O)(=O)c1cccc(Cl)c1)C1CCOCC1` (stereo not given), the cytotoxicity at 70.5 h was -6.77%. Take `COc1ccnc(N2CCCN(Cc3ncc(C(C)C)o3)CC2)n1`: the cytotoxicity at 70.5 h is -4.8%. On to `O=C(NCCNC1CCN(c2nccs2)CC1)c1cccs1`, for which the cytotoxicity at 70.5 h is -9.14%.

Consider `O=C(Cn1cc(C2CC2)nn1)N(Cc1cccs1)CC1CCCO1` (stereo not given), for which the cytotoxicity at 70.5 h amounted to 10.4%. Next, `CNS(=O)(=O)c1ccc(CNC(=O)C2CCCO2)cc1` (stereo not given): 27.2%; `N#Cc1ccc(NCCC(=O)N2CCCc3ccccc32)nc1`: -6.4%; `CN(C)C(=O)CNC(=O)c1cc2ccccc2nc1N1CCCC1`: -7.99%. Consider `O=C(NCCCn1cccn1)c1nc2ccccc2[nH]1`, for which the cytotoxicity at 70.5 h is -10.1%. As for `Cn1cc(CCNC(=O)c2cc3ccccc3nc2N2CCCC2)cn1`, the cytotoxicity at 70.5 h came out at 3.18%. With `CC(C)NC(=O)NC(C)c1nc(-c2ccccc2)cs1` (stereo not given), the cytotoxicity at 70.5 h is -6.77%.

Consider `CC(NC(=O)NC1CC1)c1nc(-c2ccccc2)cs1` (stereo not given), for which the cytotoxicity at 70.5 h was -8.69%.

Regarding `COc1ccc2c(c1)NC(=O)C2OC(=O)Cc1ccccc1C` (stereo not given), the cytotoxicity at 70.5 h turned out to be 31.3%. Next, `Cn1cc(NS(=O)(=O)CC2CCCCO2)cn1` (stereo not given): -8.18%.

As for `O=S(=O)(CC1CCCCO1)Nc1cnn(CC(F)F)c1` (stereo not given), the cytotoxicity at 70.5 h is -7.78%. Next, `Cn1nc2c(cc1=O)CN(c1ncnc3sccc13)CC2`: 5.63%. Consider `CCn1nc2c(cc1=O)CN(c1ncnc3sccc13)CC2`, for which the cytotoxicity at 70.5 h was -11.4%. Consider `Cc1nc(CNc2cccc(Cl)c2Cl)cs1`, for which the cytotoxicity at 70.5 h was determined as 16.5%.

In the case of `CC(C)(C)CCCC(=O)Nc1ccnn1C1CCS(=O)(=O)C1` (stereo not given), the cytotoxicity at 70.5 h is -6.88%. The same measure for `Cc1c(COC(C)C)cccc1NC(=O)N1CCCC(CO)C1` (stereo not given): -3.17%. For the molecule `Cc1nc(C(=O)NS(=O)(=O)c2cccc(C#N)c2)cs1`, the cytotoxicity at 70.5 h worked out at 17.6%. With `COc1cc(CNc2nc(N3CCOCC3)ns2)cc(OC)c1OC`, the cytotoxicity at 70.5 h was -5.63%.

`Cc1csc(N2CCCN(c3cc(C)nc(C)c3C#N)CC2)n1`: the cytotoxicity at 70.5 h was -4%. Consider `Cc1cc(N2CCCC2)c(C#N)c(C)n1`, for which the cytotoxicity at 70.5 h came out at 17.6%.

On to `Cc1ccccc1C(NC(=O)NCC1(CO)CC1)C1CC1` (stereo not given), for which the cytotoxicity at 70.5 h is -1.18%. Next, `O=C(c1ccon1)N1CCN(c2ccncc2Cl)CC1`: -4.94%. With `Cc1cccc(CCC(=O)Nc2ccnn2C2CCS(=O)(=O)C2)c1` (stereo not given), the cytotoxicity at 70.5 h stood at 17%.

For `COc1c(Cl)cccc1NCc1csc(C)n1`, the cytotoxicity at 70.5 h is -8.65%. Next, `CN(CCCNC(=O)C1CCc2cn[nH]c2C1)c1ccccc1` (stereo not given): -4.99%; `CCOC(C)c1nc(CNc2cccc(Cl)c2OC)cs1` (stereo not given): 8.97%; `Cc1csc(CNC(=O)NCC(C)Cn2nc(C)cc2C)n1` (stereo not given): -5.06%. Consider `O=C(Cc1cccnc1)NCCS(=O)(=O)c1ccccc1F`, for which the cytotoxicity at 70.5 h is -7.32%.

As to `CCC(NCCn1cc(C)cn1)C(=O)Nc1cc(C)on1` (stereo not given), the cytotoxicity at 70.5 h is 10.8%. Regarding `CSCCC(NC(N)=O)C(=O)NCc1cnn(-c2ccccc2)c1` (stereo not given), the cytotoxicity at 70.5 h was 8.76%. In the case of `CCn1cnnc1CNC(=O)N1CCOC(c2ccc(F)cc2)C1` (stereo not given), the cytotoxicity at 70.5 h was -3.32%. Take `CC(Cc1cccc(F)c1)C(=O)NS(=O)(=O)c1cnn(C)c1` (stereo not given): the cytotoxicity at 70.5 h was -1.2%. Next, `O=C(CC1CCCC1)NCCNCc1cccc2c1OCCO2`: 4.62%; `O=C(Nc1ccncc1)NC1CCN(c2ccccc2OC(F)F)C1` (stereo not given): 1.15%; `COC(CNC(=O)c1ccc[nH]1)c1cccc(Cl)c1` (stereo not given): 10.5%. For `CCN(Cc1ccoc1)c1ncc(S(N)(=O)=O)s1`, the cytotoxicity at 70.5 h was -7.46%. `Cc1cc(CNCC2(O)CCOCC2)ccc1Br`: the cytotoxicity at 70.5 h stood at 4.13%. As to `O=C(Nc1ccccn1)NC1CCN(c2ccccc2OC(F)F)C1` (stereo not given), the cytotoxicity at 70.5 h is -2.08%. In the case of `COCCN1CCC(NC(=O)C/C=C/c2ccc(C(C)C)cc2)CC1`, the cytotoxicity at 70.5 h came out at 2.87%.

As to `CC(C)c1ccc(/C=C/CC(=O)NC2CCN(C(N)=O)CC2)cc1`, the cytotoxicity at 70.5 h is -9.67%. On to `CC(C(=O)NC1(C#N)CCCCC1)N1CCc2c(ncn2C2CC2)C1` (stereo not given), for which the cytotoxicity at 70.5 h was -8.12%. The same measure for `CCc1nc(CCNc2ncccc2C#N)sc1C`: -8.12%; for `Cc1cc(NC(=O)C(C)NCCn2cccn2)no1` (stereo not given): -0.681%; for `O=C(NCCNCc1cccc2c1OCCCO2)C1CCCC1`: 14.5%. For `COCCN1CCC(CNC(=O)c2ccnc(-n3ccnc3)c2)CC1`, the cytotoxicity at 70.5 h was -0.309%.

As to `CN(CCOc1ccc(F)cc1)S(=O)(=O)c1cnn(C)c1`, the cytotoxicity at 70.5 h is -8.4%. Take `CC(NC(=O)NCCCn1ccnc1)c1nncn1C` (stereo not given): the cytotoxicity at 70.5 h was -2.89%. For the molecule `NC(=O)C1CCN(C(=O)NC2CCc3cc(Cl)ccc32)CC1` (stereo not given), the cytotoxicity at 70.5 h is -7.29%. As for `CC1CCN(C(=O)c2occc2COc2cccc(C#N)c2)CC1`, the cytotoxicity at 70.5 h is 8.42%.

On to `CC(C)(C)n1cc(CNC2CCN(C(=O)c3ccoc3)CC2)cn1`, for which the cytotoxicity at 70.5 h is -1.77%. For the molecule `CC(C)[C@H](N)C(=O)N1CCSc2ccccc2C1`, the cytotoxicity at 70.5 h was -3.37%. Next, `NC1(c2nc(C(F)(F)F)cc(=O)[nH]2)CCCCC1`: 0.93%.

These data come from ChEMBL document CHEMBL3507680, “University of Dundee, Gates Library screen for HepG2 cell viability”.
